The compounds below were run against T1, human MPO (Homo sapiens, UniProt P05164) (assay: MPO inhibition screen (TMB oxidation, absorbance)). Settings: in the presence of tyrosine (final 8 μM); human MPO 2.5 nM; H2O2 100 μM.
T1 sequence (P05164 49-745): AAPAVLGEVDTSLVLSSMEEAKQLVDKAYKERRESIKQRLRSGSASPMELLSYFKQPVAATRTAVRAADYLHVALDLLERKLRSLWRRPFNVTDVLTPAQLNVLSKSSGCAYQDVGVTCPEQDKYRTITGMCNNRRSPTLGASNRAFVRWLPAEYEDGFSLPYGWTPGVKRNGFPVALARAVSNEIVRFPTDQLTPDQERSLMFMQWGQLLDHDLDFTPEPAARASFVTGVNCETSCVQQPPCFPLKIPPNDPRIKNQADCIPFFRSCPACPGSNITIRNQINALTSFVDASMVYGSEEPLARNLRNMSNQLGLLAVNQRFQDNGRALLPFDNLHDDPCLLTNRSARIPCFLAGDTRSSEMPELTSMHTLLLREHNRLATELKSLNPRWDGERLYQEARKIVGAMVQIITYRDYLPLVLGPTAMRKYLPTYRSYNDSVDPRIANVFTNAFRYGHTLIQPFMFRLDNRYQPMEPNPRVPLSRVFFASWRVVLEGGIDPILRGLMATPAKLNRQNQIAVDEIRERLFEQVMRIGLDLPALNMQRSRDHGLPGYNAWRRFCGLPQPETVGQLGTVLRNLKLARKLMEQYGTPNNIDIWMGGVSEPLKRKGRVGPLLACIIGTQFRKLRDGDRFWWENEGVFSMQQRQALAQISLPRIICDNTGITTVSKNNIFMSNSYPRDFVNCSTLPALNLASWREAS
Format: biochemical
Experimental: Methods for the determination of MPO inhibitory activity are disclosed in patent application WO 02/090575. The pharmacological activity of compounds according to the invention was tested in the following screen in which the compounds were either tested alone or in the presence of added tyrosine:
Assay buffer: 20 mM sodium/potassium phosphate buffer pH 6.5 containing 10 mM taurine and 100 mM NaCl.
Developing reagent: 2 mM 3,3′,5,5′-tetramethylbenzidine (TMB), 200 μM KI, 200 mM acetate buffer pH 5.4 with 20% DMF.
To 10 μl of diluted compounds in assay buffer, 40 μl of human MPO (final concentration 2.5 nM), with or without 20 μM tyrosine (final concentration, if present, 8 μM), was added and the mixture was incubated for 10 minutes at ambient temperature. Then 50 μl of H2O2 (final concentration 100 μM), or assay buffer alone as a control, were added. After incubation for 10 minutes at ambient temperature, the reaction was stopped by adding 10 μl 0.2 mg/ml of catalase (final concentration 18 μg/ml). The reaction mixture was left for an additional 5 minutes before 100 μl of TMB developing reagent was added. The amount of oxidised 3,3′,5,5′-tetramethylbenzidine formed was then measured after about 5 minutes using absorbance spectroscopy at about […]. IC50 values were then determined using standard procedures.

| SMILES | IC50 |
| --- | --- |
| S=c1[nH]nc(Cc2ccccn2)n1C1CC2C=CC1C2 (stereo not drawn) [Example 4, 4-(Bicyclo[2.2.1]hept-5-en-2-yl)-5-pyridin-2-ylmethyl-2,4-dihydro-[1,2,4]triazole-3-thione] | 6.73 µM |
| S=c1[nH]nc(Cc2ccccn2)n1C1CCN(Cc2ccccc2)C1 (stereo not drawn) [Example 5, 4-(1-Benzyl-pyrrolidin-3-yl)-5-pyridin-2-ylmethyl-2,4-dihydro-[1,2,4]triazole-3-thione] | 7.2 µM |
| O[C@@H]1CCCC[C@H]1n1c(COc2ccccc2Cl)n[nH]c1=S (relative stereo) [Example 2, 5-(2-Chloro-phenoxymethyl)-4-(trans-2-hydroxycyclohexyl)-2,4-dihydro-[1,2,4]triazole-3-thione] | 3.59 µM |
